The results in this text go back to patent US10124004B2, “Pyrido[3,4-d]pyrimidine derivative and pharmaceutically acceptable salt thereof” (Teijin Pharma Limited, priority 2015, dated 2018).

Like-named read-outs stand apart in the source and are kept apart here.

In assay [1] the target is T1, CDK4/cyclin D3 (Homo sapiens, UniProt P11802).
T1 construct: purchased Carna Biosciences, Inc. QS S Assist CDK4/Cyclin D3_FP Kit
As to the kind of experiment: Human CDK4/cyclin D3 inhibitory activity (QS S Assist CDK4/Cyclin D3_FP Kit, IMAP fluorescence polarization). It is filed as biochemical. The essentials:
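IMAP fluorescence-polarization kinase assay with kit ATP/substrate/metal mix and 12.5 to 25 ng/well enzyme in 20 mM HEPES pH 7.4, 0.01% Tween20, 2 mM DTT. Reaction ran 45 min at room temperature, then binding reagent was added for 30 min in the dark. IC50 was taken from dose-response fits of percent inhibition.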

In assay [2] the target is T2, CDK2/cyclin A2 (Homo sapiens, UniProt P24941).
T2 construct: purchased Carna Biosciences, Inc. QS S Assist CDK2/Cyclin A2_FP Kit
Put plainly: Human CDK2/cyclin A2 inhibitory activity (QS S Assist CDK2/Cyclin A2_FP Kit, IMAP fluorescence polarization). It is filed as biochemical. The essentials: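 Kinase activity read as fluorescence polarization (485/535 nm) after phosphorylated fluorescent substrate binds IMAP reagent (30 min, RT, dark). Enzyme (2.5 ng/well) reacted 60 min at RT with ATP/substrate/metal in HEPES pH 7.4 buffer with Tween 20 and DTT; no-enzyme wells define 0% activity; IC50 by curve fit.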

The mark [3] stands for this setting: Human CDK4/cyclin D3 inhibitory activity, read-out: CDK4 Activity symbol.
Where [4] appears, read: Human CDK2/cyclin A2 inhibitory activity, read-out: CDK2 Activity symbol.
[5] abbreviates: 50% inhibitory concentration against CDK4/cyclin D3, given as class symbol.
The mark [6] stands for this setting: 50% inhibitory concentration against CDK2/cyclin A2, given as class symbol.

T1 sequence (P11802 whole entry): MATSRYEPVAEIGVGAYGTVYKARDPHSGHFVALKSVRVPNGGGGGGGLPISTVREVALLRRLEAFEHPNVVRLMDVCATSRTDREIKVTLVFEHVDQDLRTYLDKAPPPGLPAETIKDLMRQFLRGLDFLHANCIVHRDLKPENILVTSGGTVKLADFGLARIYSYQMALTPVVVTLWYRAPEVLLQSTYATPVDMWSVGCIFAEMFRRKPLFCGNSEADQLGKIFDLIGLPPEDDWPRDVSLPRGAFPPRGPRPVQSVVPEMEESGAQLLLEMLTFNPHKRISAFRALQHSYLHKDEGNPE
T1 sequence (P30281 whole entry partner): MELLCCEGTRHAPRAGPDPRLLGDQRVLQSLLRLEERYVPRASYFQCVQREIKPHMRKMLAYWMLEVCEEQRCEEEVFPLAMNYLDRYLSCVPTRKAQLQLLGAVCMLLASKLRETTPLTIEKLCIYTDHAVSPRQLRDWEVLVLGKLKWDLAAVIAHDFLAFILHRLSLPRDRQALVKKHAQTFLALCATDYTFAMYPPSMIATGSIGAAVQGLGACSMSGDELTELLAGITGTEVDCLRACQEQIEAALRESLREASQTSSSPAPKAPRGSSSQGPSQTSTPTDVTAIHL

Regarding `C[C@@H](O)c1cc2cnc(Nc3ccc(N4CCNCC4)nn3)nc2c(NC(C)(C)C(=O)O)n1` [Compound 315], the IC50 in assay [1] (setting [3]) and in assay [2] (setting [4]) was no less than 100 nM throughout.
Regarding `CO[C@H](C)c1cc2cnc(Nc3ccc(CN4CCN(CCO)CC4)cn3)nc2c(N[C@@H](C)CO)n1` [Compound 915], the IC50 in assay [1] (setting [5]) was less than 10 nM; in assay [2] (setting [6]) it was no less than 100 nM.
The corresponding values for `CC1(c2cc3cnc(Nc4ccc(CN5CCNCC5)cn4)nc3c(NCC3CC(F)(F)C3)n2)COC1` [Compound 1110] are less than 10 nM and no less than 100 nM.
Taken in the same sequence, the figures for `CC(C)Nc1nc([C@@H](C)O)cc2cnc(Nc3ccc(N4CCNC(C(F)(F)F)C4)nn3)nc12` (stereo partly drawn) [Compound 896] were less than 10 nM and no less than 100 nM.
Consider `CO[C@H](C)c1cc2cnc(Nc3ccc(CN4CC[C@@H](F)C4)cn3)nc2c(NC(C)C)n1` [Compound 271], for which the IC50 in assay [1] (setting [3]) was less than 10 nM; in assay [2] (setting [4]) it was no less than 100 nM.
For `CCCNc1nc([C@@H](C)O)cc2cnc(Nc3ccc(CN4CCN(CCO)C[C@H]4C)cn3)nc12` [Compound 1076], the IC50 is less than 10 nM in assay [1] (setting [5]) and no less than 100 nM in assay [2] (setting [6]).
As to `C[C@@H](O)c1cc2cnc(Nc3ccc(N4CCNCC4)nn3)nc2c(NC2CCOCC2)n1` [Compound 250], the figures for the IC50 in assay [1] (setting [3]) and in assay [2] (setting [4]) were less than 10 nM and no less than 100 nM, respectively.
In the case of `CC(C)Nc1nc([C@@H](C)O)cc2cnc(Nc3ccc(CN4CCNC(=O)C4)cn3)nc12` [Compound 234], the IC50 was less than 10 nM in assay [1] (setting [3]) and no less than 100 nM in assay [2] (setting [4]).
The corresponding values for `C[C@@H](O)c1cc2cnc(Nc3ccc(N4CCC(O)CC4)nn3)nc2c(N[C@H]2CCCOC2)n1` [Compound 595] are less than 10 nM and no less than 100 nM.
Regarding `C[C@@H](O)c1cc2cnc(Nc3ccc(CN4CCN(CCO)CC4)cn3)nc2c(NCC2CC2)n1` [Compound 999], the IC50 in assay [1] (setting [5]) was less than 10 nM; in assay [2] (setting [6]), no less than 100 nM.
As to `CC(C)Nc1nc([C@@H](C)O)cc2cnc(Nc3ccc(OCCN(C)C)nn3)nc12` [Compound 474], the values for the IC50 in assay [1] (setting [3]) and in assay [2] (setting [4]) were less than 10 nM and no less than 100 nM, respectively.
Take `CC(C)Nc1nc([C@@H](C)O)cc2cnc(Nc3ccc(N4CCC(CC(=O)O)CC4)nn3)nc12` [Compound 797]: the IC50 is 10 to 100 nM in assay [1] (setting [5]) and no less than 100 nM in assay [2] (setting [6]).
For `C[C@@H](O)c1cc2cnc(Nc3ccc(CN4CCNCC4)cn3)nc2c(N[C@H]2CC[C@H](C(=O)O)CC2)n1` [Compound 342], the IC50 in assay [1] (setting [3]) was less than 10 nM; in assay [2] (setting [4]), no less than 100 nM.
The corresponding values for `CC(=O)c1cc2cnc(Nc3ccc(N4CCNCC4)cn3)nc2c(NC(C)(C)C)n1` [Compound 59] are less than 10 nM and no less than 100 nM.
Consider `CC(C)Nc1nc([C@@H](C)O)cc2cnc(Nc3ccc(CN4CCCCC4)cn3)nc12` [Compound 1038], for which the IC50 is less than 10 nM in assay [1] (setting [5]) and no less than 100 nM in assay [2] (setting [6]).
The corresponding values for `CO[C@H](C)c1cc2cnc(Nc3ccc(CN4CCN(C(=O)C5CCOC5)CC4)cn3)nc2c(NC(C)C)n1` (stereo partly drawn) [Compound 1158] are less than 10 nM and no less than 100 nM.
As for `CC(C)Nc1nc([C@@H](C)O)cc2cnc(Nc3ccc(N4CCN(C(C)(C)C)CC4)nn3)nc12` [Compound 604], the IC50 in assay [1] (setting [3]) was less than 10 nM; in assay [2] (setting [4]), no less than 100 nM.
Taken in the same sequence, the figures for `COCC(C)(C)Nc1nc(C(F)F)cc2cnc(Nc3ccc(N4CCNCC4)cn3)nc12` [Compound 31] were less than 10 nM and no less than 100 nM.
Taken in the same sequence, the figures for `CC(C)Nc1nc(C(F)F)cc2cnc(Nc3ccc(CN4CCNC(C)(C)C4)cn3)nc12` [Compound 174] were less than 10 nM and 10 to 100 nM.
The corresponding values for `FC(F)c1cc2cnc(Nc3ccc(CN4CCNCC4)cn3)nc2c(NC2CCOCC2)n1` [Compound 364] are less than 10 nM and 10 to 100 nM.
Take `COCC(C)Nc1nc(C(C)O)cc2cnc(Nc3ccc(N4CCNCC4)cn3)nc12` (stereo not drawn) [Compound 28]: the IC50 in assay [1] (setting [3]) was less than 10 nM; in assay [2] (setting [4]), no less than 100 nM.
Turning to `C[C@@H](O)c1cc2cnc(Nc3ccc(N4CCN(C)CC4)nn3)nc2c(NC2CCC(C)(C)OC2)n1` (stereo partly drawn) [Compound 639], the IC50 in assay [1] (setting [5]) is less than 10 nM; in assay [2] (setting [6]) it was no less than 100 nM.
On to `CO[C@H](C)c1cc2cnc(Nc3ccc(N4CCNCCC4=O)cn3)nc2c(NC(C)C)n1` [Compound 499], for which the IC50 is less than 10 nM in assay [1] (setting [3]) and 10 to 100 nM in assay [2] (setting [4]).
For `CC(C)Nc1nc(C(C)O)cc2cnc(Nc3ccc(C4COCCN4)cn3)nc12` (single isomer, unassigned) [Compound 866], the IC50 is less than 10 nM in assay [1] (setting [5]) and no less than 100 nM in assay [2] (setting [6]).
The corresponding values for `CC(C)Nc1nc(C(C)O)cc2cnc(Nc3ccc(OC4CCC(C(=O)O)CC4)cn3)nc12` (single isomer, unassigned) [Compound 832] are 10 to 100 nM and no less than 100 nM.
The corresponding values for `CC(C)Nc1nc([C@@H](C)O)cc2cnc(Nc3ccc(CN4CCN(C5COC5)CC4)cn3)nc12` [Compound 683] are less than 10 nM and no less than 100 nM.
On to `CC(C)Nc1nc(C(F)F)cc2cnc(Nc3ccc(CN4CCNC4=O)cn3)nc12` [Compound 213], for which the IC50 in assay [1] (setting [3]) is less than 10 nM; in assay [2] (setting [4]) it was 10 to 100 nM.
As to `CCCNc1nc([C@@H](C)O)cc2cnc(Nc3ccc4c(n3)CCN(C(=O)CO)C4)nc12` [Compound 1116], the IC50 in assay [1] (setting [5]) is less than 10 nM; in assay [2] (setting [6]) it was no less than 100 nM.
As to `CC(C)Nc1nc([C@@H](C)O)cc2cnc(Nc3ccc(N4CCN(C(=O)CO)CC4)nn3)nc12` [Compound 659], the IC50 in assay [1] (setting [5]) is less than 10 nM; in assay [2] (setting [6]) it was no less than 100 nM.
The corresponding values for `CC(C)N(C)c1nc([C@@H](C)O)cc2cnc(Nc3ccc(N4CCNCC4=O)cn3)nc12` [Compound 871] are 10 to 100 nM and no less than 100 nM.
With `C[C@@H](O)c1cc2cnc(Nc3ccc(CN4CCC(O)CC4)cn3)nc2c(N[C@H]2CC[C@H](O)CC2)n1` [Compound 1064], the values for the IC50 in assay [1] (setting [5]) and in assay [2] (setting [6]) were less than 10 nM and no less than 100 nM, respectively.
For `CO[C@H](C)c1cc2cnc(Nc3ccc(N4CCN(CCO)CC4)nn3)nc2c(NC(C)C)n1` [Compound 249], the IC50 was less than 10 nM in assay [1] (setting [3]) and no less than 100 nM in assay [2] (setting [4]).
Turning to `CCNc1nc([C@@H](C)O)cc2cnc(Nc3ccc(CN4CCN(CCO)CC4(C)C)cn3)nc12` [Compound 1203], the values for the IC50 in assay [1] (setting [5]) and in assay [2] (setting [6]) were 10 to 100 nM and no less than 100 nM, respectively.
The corresponding values for `CC(C)Nc1nc(C2CCOC2)cc2cnc(Nc3ccc(CN4CCN(CC#N)CC4)cn3)nc12` (stereo not drawn) [Compound 1014] are less than 10 nM and no less than 100 nM.
For `CC(O)c1cc2cnc(Nc3ccc(N4CCNCC4)cn3)nc2c(Nc2cn[nH]c2)n1` (stereo not drawn) [Compound 32], the IC50 in assay [1] (setting [3]) is less than 10 nM; in assay [2] (setting [4]), no less than 100 nM.
Turning to `C[C@@H](O)c1cc2cnc(Nc3ccc(N4CCNCC4)nn3)nc2c(N[C@@H]2CCOC2)n1` [Compound 252], the IC50 was less than 10 nM in assay [1] (setting [3]) and no less than 100 nM in assay [2] (setting [4]).
Turning to `CNCCOc1ccc(Nc2ncc3cc([C@@H](C)O)nc(N[C@@H](C)COC)c3n2)nc1` [Compound 757], the IC50 in assay [1] (setting [5]) was less than 10 nM; in assay [2] (setting [6]), no less than 100 nM.
For `CC(O)c1cc2cnc(Nc3ccc(N4CCNCC4)cn3)nc2c(NCC(F)F)n1` (stereo not drawn) [Compound 36], the IC50 in assay [1] (setting [3]) and in assay [2] (setting [4]) was no less than 100 nM each time.
As to `C[C@@H](O)c1cc2cnc(Nc3ccc(CN4CCCC(O)C4)cn3)nc2c(NC2CCC2)n1` (stereo partly drawn) [Compound 1084], the IC50 in assay [1] (setting [5]) was less than 10 nM; in assay [2] (setting [6]) it was no less than 100 nM.
